Measurements published in patent publication US11291750B2, “Hydrogel condom” (THE TEXAS A & M UNIVERSITY SYSTEM, priority 2016, dated 2022).
In brackets after ≈: the same amount, converted by molar mass.

Columns and labels:
[1] = Aqueous solubility of quercetin without and with sulfated beta-cyclodextrin (UV absorbance at 375 nm); type: physicochemical; conditions: aqueous sulfated beta-cyclodextrin solution, aqueous with cosolvent or surfactant or cyclodextrin
Text: FIG. 8 depicts a graph of sulfated beta-cyclodextrin formed 1:1 complex with antioxidant quercetin, showing quercetin can be encapsulated in the gel. […] In the presence of sulfated beta-cyclodextrin, the absorbance increased. The sulfated beta-cyclodextrin can form 1:1 complex with quercetin through host-guest chemistry. […] Embedment of quercetin in hydrogel and its release: The sulfated beta-cyclodextrin in the crosslinked polymer hydrogel allows drug molecules, even hydrophobic compounds, to incorporate into it through host-guest interaction. An encapsulated-quercetin hydrogel film was prepared (FIG. 8). […] The high equilibrium binding constant of the sulfated β-cyclodextrin/quercetin complex (Kf=2.53×10^4 M^−1 at 25° C.) permits encapsulation of high concentration of quercetin in gel. The fabrication of the quercetin hydrogel is similar to that mentioned above, except for alternative sulfated beta-cyclodextrin with 1:1 sulfated beta-cyclodextrin/quercetin complex. The resultant hydrogel attained similar high fracture toughness and stretching ability in the presence of quercetin (FIG. 9).

[2] = 'as known'; cited from earlier work

solubility ([1]; in 1 mM sulfated beta-cyclodextrin): 42 µM (≈ 12.7 µg/mL) | solubility ([1]; in 2 mM sulfated beta-cyclodextrin): 73 µM (≈ 22.1 µg/mL)
SMILES: O=c1c(O)c(-c2ccc(O)c(O)c2)oc2cc(O)cc(O)c12 [quercetin]
solubility in water [2]: ~1.3 µM (≈ 0.393 µg/mL)
